Results: US20230391768A2, “IMIDAZOPYRIDINE DERIVATIVES AND AZA-IMIDAZOPYRIDINE DERIVATIVES AS JANUS KINASE 2 INHIBITORS AND USES THEREOF” (Dana-Farber Cancer Institute, Inc., priority 2018, published 2023)

How the values were obtained:
Assay in all cases: KINOMEscan
Assay type in all cases: binding
[1] = molecular target: TXK (Homo sapiens (Human), UniProt P42681); conditions: read-out: percent of control
Protocol: (§1) In vitro profiling of Compound I-2 (1 μM) was performed using the DiscoveRx KINOMEscan® platform.

[2] = molecular target: EPHA4 (Homo sapiens (Human), UniProt P54764); conditions: read-out: percent of control
Protocol: as §1

[3] = molecular target: PLK4 (Homo sapiens (Human), UniProt O00444); conditions: read-out: percent of control
Protocol: as §1

[4] = molecular target: PRKCD (Homo sapiens (Human), UniProt Q05655); conditions: read-out: percent of control
Protocol: as §1

[5] = molecular target: INSRR (Homo sapiens (Human), UniProt P14616); conditions: read-out: percent of control
Protocol: as §1

[6] = molecular target: MARK2 (Homo sapiens (Human), UniProt Q7KZI7); conditions: read-out: percent of control
Protocol: as §1

[7] = molecular target: ULK (Homo sapiens (Human), UniProt O75385); conditions: read-out: percent of control
Protocol: as §1

[8] = molecular target: TEC (Homo sapiens (Human), UniProt P42680); conditions: read-out: percent of control
Protocol: as §1

[9] = molecular target: ABL1(T315I)-phosphorylated (Homo sapiens (Human), UniProt P00519, T315I); conditions: read-out: percent of control
Protocol: as §1

[10] = molecular target: PIK3CG (Homo sapiens (Human), UniProt P48736); conditions: read-out: percent of control
Protocol: as §1

[11] = molecular target: FLT3 (D835H) (Homo sapiens (Human), UniProt P36888, D835H); conditions: read-out: percent of control
Protocol: as §1

[12] = molecular target: CAMK2G (Homo sapiens (Human), UniProt Q13555); conditions: read-out: percent of control
Protocol: as §1

[13] = molecular target: KIT(V559D) (Homo sapiens (Human), UniProt P10721, V559D); conditions: read-out: percent of control
Protocol: as §1

[14] = molecular target: EPHB3 (Homo sapiens (Human), UniProt P54753); conditions: read-out: percent of control
Protocol: as §1

[15] = test system: FLT3 (ITD,F691L); conditions: 1 μM
Protocol: as §1

[16] = molecular target: PLK3 (Homo sapiens (Human), UniProt Q9H4B4); conditions: read-out: percent of control
Protocol: as §1

[17] = molecular target: PAK4 (Homo sapiens (Human), UniProt O96013); conditions: read-out: percent of control
Protocol: as §1

[18] = molecular target: PIK3CA(H1047Y) (Homo sapiens (Human), UniProt P42336, H1047Y); conditions: read-out: percent of control
Protocol: as §1

[19] = molecular target: CAMK1B (Homo sapiens (Human), UniProt Q6P2M8); conditions: read-out: percent of control
Protocol: as §1

[20] = molecular target: TYK2(JH2domainpseudokia (Homo sapiens (Human), UniProt P29597)); conditions: read-out: percent of control
Protocol: as §1

[21] = molecular target: RPS6KA4 (Kin.Dom.1-N-terminal) (Homo sapiens (Human), UniProt O75676); conditions: read-out: percent of control
Protocol: as §1

[22] = molecular target: DRAK1 (Homo sapiens (Human), UniProt Q9UEE5); conditions: read-out: percent of control
Protocol: as §1

[23] = molecular target: EPHA2 (Homo sapiens (Human), UniProt P29317); conditions: read-out: percent of control
Protocol: as §1

[24] = molecular target: HPK1 (Homo sapiens (Human), UniProt Q92918); conditions: read-out: percent of control
Protocol: as §1

[25] = molecular target: CIT (Homo sapiens (Human), UniProt O14578); conditions: read-out: percent of control
Chain of CIT (O14578 whole entry): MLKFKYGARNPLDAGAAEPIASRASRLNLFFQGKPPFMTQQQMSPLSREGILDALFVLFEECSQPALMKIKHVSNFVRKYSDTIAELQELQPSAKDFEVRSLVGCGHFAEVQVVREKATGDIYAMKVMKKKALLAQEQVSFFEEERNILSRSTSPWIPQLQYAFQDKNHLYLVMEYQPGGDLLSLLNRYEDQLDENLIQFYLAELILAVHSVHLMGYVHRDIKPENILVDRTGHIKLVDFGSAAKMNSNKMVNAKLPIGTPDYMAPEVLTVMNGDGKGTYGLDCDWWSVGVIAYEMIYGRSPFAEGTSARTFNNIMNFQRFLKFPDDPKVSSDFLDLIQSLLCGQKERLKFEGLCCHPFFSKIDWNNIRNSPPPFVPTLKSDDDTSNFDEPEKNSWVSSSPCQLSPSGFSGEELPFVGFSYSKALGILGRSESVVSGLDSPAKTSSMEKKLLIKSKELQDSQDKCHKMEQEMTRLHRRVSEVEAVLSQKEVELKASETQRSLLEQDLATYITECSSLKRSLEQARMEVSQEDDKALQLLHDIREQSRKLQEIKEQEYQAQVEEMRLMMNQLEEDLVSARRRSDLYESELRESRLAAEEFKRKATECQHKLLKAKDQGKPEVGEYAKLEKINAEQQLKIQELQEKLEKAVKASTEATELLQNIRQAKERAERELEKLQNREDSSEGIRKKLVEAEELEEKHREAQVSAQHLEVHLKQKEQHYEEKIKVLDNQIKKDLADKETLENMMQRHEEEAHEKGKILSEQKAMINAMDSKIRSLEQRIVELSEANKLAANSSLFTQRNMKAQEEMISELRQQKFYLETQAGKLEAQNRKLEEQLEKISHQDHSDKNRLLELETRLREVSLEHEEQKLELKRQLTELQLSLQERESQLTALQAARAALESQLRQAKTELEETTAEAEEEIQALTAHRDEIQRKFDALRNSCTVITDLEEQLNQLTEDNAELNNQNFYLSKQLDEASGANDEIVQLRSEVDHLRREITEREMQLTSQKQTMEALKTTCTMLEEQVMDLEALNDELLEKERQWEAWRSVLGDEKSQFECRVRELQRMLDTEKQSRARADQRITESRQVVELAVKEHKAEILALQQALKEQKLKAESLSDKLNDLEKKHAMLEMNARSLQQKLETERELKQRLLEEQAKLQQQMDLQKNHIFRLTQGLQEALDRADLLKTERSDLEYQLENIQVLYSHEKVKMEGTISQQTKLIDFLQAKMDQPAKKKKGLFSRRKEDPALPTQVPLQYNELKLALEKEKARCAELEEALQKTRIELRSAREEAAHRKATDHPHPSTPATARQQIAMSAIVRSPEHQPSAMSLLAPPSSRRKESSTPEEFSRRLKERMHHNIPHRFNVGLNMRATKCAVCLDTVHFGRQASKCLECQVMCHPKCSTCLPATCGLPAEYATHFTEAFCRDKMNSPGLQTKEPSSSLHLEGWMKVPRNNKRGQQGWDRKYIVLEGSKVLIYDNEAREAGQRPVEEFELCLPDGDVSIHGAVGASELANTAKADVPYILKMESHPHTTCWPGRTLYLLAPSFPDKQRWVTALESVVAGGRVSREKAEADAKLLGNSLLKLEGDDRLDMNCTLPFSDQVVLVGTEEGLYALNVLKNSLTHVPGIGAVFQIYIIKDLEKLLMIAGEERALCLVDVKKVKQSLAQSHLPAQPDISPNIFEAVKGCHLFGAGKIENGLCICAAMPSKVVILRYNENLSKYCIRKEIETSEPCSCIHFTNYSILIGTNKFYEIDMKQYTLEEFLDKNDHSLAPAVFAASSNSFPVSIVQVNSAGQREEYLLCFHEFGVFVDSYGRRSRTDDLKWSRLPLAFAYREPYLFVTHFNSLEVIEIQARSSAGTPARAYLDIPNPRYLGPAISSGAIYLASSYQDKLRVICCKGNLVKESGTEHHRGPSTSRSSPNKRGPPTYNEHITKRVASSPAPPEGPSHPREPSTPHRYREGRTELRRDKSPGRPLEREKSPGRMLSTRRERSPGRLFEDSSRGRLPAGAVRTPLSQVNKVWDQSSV
Protocol: as §1

[26] = molecular target: CDKL2 (Homo sapiens (Human), UniProt Q92772); conditions: read-out: percent of control
Protocol: as §1

[27] = molecular target: CAMKK2 (Homo sapiens (Human), UniProt Q96RR4); conditions: read-out: percent of control
Protocol: as §1

[28] = molecular target: WNK1 (Homo sapiens (Human), UniProt Q9H4A3); conditions: read-out: percent of control
Protocol: as §1

[29] = molecular target: PAK1 (Homo sapiens (Human), UniProt Q13153); conditions: read-out: percent of control
Chain of PAK1 (Q13153 whole entry): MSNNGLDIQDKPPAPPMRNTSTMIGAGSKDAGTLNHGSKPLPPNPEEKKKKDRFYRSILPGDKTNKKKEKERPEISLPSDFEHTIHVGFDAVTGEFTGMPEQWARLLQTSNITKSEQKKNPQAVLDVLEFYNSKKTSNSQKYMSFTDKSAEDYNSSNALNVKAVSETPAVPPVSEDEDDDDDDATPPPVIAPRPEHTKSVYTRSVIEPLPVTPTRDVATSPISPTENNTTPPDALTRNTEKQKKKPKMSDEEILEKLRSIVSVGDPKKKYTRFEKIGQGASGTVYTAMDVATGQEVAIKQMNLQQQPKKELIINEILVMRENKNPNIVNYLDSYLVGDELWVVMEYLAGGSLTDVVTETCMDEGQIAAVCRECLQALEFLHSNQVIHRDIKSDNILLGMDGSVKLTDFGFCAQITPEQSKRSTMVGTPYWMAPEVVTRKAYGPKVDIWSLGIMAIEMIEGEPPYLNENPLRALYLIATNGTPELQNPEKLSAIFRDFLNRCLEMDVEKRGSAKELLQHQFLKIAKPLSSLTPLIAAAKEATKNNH
Protocol: as §1

[30] = molecular target: HCK (Homo sapiens (Human), UniProt P08631); conditions: read-out: percent of control
Protocol: as §1

[31] = molecular target: ACVRL1 (Homo sapiens (Human), UniProt P37023); conditions: read-out: percent of control
Protocol: as §1

[32] = molecular target: MET (Homo sapiens (Human), UniProt P08581); conditions: read-out: percent of control
Chain of MET (P08581 25-1390): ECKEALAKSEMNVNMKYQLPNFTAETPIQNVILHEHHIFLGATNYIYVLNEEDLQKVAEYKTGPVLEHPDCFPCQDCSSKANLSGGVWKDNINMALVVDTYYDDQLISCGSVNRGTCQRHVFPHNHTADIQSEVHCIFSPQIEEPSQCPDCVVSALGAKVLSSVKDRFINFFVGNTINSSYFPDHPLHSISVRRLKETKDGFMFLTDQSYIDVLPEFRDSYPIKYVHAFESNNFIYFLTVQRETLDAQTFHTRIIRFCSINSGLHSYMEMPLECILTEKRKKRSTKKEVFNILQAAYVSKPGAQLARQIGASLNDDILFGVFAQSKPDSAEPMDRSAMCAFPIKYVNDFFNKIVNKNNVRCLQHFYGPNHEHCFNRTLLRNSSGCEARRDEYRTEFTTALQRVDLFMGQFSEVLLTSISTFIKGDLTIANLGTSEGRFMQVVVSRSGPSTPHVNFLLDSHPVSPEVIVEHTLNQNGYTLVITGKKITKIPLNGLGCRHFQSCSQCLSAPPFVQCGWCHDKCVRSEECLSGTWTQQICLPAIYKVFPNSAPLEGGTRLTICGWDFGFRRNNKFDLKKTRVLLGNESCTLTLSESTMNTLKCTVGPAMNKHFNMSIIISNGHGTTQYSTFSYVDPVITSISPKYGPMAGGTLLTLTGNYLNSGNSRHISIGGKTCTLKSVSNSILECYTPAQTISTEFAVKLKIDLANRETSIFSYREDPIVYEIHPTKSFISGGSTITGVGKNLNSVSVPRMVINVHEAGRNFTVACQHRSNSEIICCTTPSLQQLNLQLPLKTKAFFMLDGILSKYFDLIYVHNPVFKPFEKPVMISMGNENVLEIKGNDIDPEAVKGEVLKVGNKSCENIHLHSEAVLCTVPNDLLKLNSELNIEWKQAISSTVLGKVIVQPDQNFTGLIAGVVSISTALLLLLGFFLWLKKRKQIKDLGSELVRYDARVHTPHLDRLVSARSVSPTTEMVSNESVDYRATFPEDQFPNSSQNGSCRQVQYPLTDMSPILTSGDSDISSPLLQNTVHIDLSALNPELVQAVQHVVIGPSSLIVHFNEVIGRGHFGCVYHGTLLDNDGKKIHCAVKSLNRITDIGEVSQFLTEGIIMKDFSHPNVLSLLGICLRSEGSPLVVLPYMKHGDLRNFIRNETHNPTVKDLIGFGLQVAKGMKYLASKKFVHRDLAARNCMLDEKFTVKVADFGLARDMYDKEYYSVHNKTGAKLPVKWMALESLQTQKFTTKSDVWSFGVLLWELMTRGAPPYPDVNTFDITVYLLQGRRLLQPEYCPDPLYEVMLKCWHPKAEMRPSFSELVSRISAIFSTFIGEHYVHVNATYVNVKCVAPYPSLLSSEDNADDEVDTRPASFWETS
Protocol: as §1

[33] = molecular target: PRKCE (Homo sapiens (Human), UniProt Q02156); conditions: read-out: percent of control
Protocol: as §1

[34] = molecular target: PIK3CA(1800L) (Homo sapiens (Human), UniProt P42336, I800L); conditions: read-out: percent of control
Protocol: as §1

[35] = molecular target: IRAK3 (Homo sapiens (Human), UniProt Q9Y616); conditions: read-out: percent of control
Protocol: as §1

[36] = molecular target: CSF1R-autoinhibited (Homo sapiens (Human), UniProt P07333); conditions: read-out: percent of control
Protocol: as §1

[37] = molecular target: CLK3 (Homo sapiens (Human), UniProt P49761); conditions: read-out: percent of control
Chain of CLK3 (P49761 whole entry): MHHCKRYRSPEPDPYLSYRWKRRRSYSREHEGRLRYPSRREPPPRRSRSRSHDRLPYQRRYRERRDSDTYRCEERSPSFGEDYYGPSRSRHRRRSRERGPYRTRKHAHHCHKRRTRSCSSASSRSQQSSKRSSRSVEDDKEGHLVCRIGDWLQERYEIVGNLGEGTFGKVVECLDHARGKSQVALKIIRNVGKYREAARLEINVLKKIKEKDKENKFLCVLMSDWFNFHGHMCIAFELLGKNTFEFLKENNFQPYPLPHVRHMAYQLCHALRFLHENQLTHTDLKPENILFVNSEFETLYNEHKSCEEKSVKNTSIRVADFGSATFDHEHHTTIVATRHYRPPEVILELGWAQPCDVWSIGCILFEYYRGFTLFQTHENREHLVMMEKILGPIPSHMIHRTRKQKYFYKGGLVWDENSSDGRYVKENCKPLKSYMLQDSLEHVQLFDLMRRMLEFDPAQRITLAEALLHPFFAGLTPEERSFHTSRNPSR
Protocol: as §1

[38] = molecular target: CDK9 (Homo sapiens (Human), UniProt P50750); conditions: read-out: percent of control
Protocol: as §1

[39] = molecular target: PIK3C2G (Homo sapiens (Human), UniProt O75747); conditions: read-out: percent of control
Protocol: as §1

Chain of TXK (P42681 whole entry): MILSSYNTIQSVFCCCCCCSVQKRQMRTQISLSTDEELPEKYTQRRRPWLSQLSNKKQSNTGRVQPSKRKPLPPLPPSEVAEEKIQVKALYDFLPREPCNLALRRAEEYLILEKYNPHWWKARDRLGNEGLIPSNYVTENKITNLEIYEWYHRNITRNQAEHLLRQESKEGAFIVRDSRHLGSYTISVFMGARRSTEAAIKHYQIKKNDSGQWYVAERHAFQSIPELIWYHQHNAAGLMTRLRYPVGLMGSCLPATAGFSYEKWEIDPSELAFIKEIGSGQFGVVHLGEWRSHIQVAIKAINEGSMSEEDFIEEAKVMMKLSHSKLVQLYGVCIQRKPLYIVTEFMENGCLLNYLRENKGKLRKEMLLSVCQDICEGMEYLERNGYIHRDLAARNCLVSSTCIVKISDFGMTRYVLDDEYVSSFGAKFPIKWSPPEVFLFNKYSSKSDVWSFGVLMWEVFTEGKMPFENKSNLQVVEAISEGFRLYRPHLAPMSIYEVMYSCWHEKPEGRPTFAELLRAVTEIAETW

Row | Structure (SMILES) | remaining binding at 1 µM [1] [%] | remaining binding at 1 µM [2] [%] | remaining binding at 1 µM [3] [%] | remaining binding at 1 µM [4] [%] | remaining binding at 1 µM [5] [%] | remaining binding at 1 µM [6] [%] | remaining binding at 1 µM [7] [%] | remaining binding at 1 µM [8] [%] | remaining binding at 1 µM [9] [%] | remaining binding at 1 µM [10] [%] | remaining binding at 1 µM [11] [%] | remaining binding at 1 µM [12] [%] | remaining binding at 1 µM [13] [%] | remaining binding at 1 µM [14] [%] | percent of control [15] [%] | remaining binding at 1 µM [16] [%] | remaining binding at 1 µM [17] [%] | remaining binding at 1 µM [18] [%] | remaining binding at 1 µM [19] [%] | remaining binding at 1 µM [20] [%] | further results
1 | CCN1CCN(Cc2cc(NC(=O)c3ccc(C)c(-c4ccc5nc(NC(=O)C6CC6)cn5n4)c3)cc(C(F)(F)F)c2)CC1 [Compound I-2, 3-(2-(cyclopropanecarboxamido)imidazo[1,2-b]pyridazin-6-yl)-N-(3-((4-ethylpiperazin-1-yl)methyl)-5-(trifluoromethyl)phenyl)-4-methylbenzamide] | 16 | 0 | 81 | 40 | 0.55 | 96 | 89 | 100 | 1.4 | 99 | 2.2 | 94 | 0 | 30 | 12 | 100 | 96 | 82 | 49 | 80 | remaining binding at 1 µM [21]: 50%; remaining binding at 1 µM [22]: 100%; remaining binding at 1 µM [23]: 1.8%; remaining binding at 1 µM [24]: 0.1%; remaining binding at 1 µM [25]: 0.1%; remaining binding at 1 µM [26]: 0%; remaining binding at 1 µM [27]: 28%; remaining binding at 1 µM [28]: 100%; remaining binding at 1 µM [29]: 81%; remaining binding at 1 µM [30]: 0%; remaining binding at 1 µM [31]: 91%; remaining binding at 1 µM [32]: 9.7%; remaining binding at 1 µM [33]: 86%; remaining binding at 1 µM [34]: 100%; remaining binding at 1 µM [35]: 90%; remaining binding at 1 µM [36]: 25%; remaining binding at 1 µM [37]: 79%; remaining binding at 1 µM [38]: 14%; remaining binding at 1 µM [39]: 92%
2 | CCN1CCN(Cc2cc(NC(=O)c3ccc(C)c(-c4ccc5nc(NC(=O)C6CC6)cn5c4)c3)cc(C(F)(F)F)c2)CC1 [Compound I-6, 3-(2-(cyclopropanecarboxamido)imidazo[1,2-a]pyridin-6-yl)-N-(3-((4-ethylpiperazin-1-yl)methyl)-5-(trifluoromethyl)phenyl)-4-methylbenzamide] | 19 | 0 | 95 | 48 | 3.8 | 78 | 100 | 100 | 2.2 | 92 | 2 | 95 | 0.05 | 35 | 34 | 100 | 96 | 92 | 97 | 95 | remaining binding at 1 µM [21]: 66%; remaining binding at 1 µM [22]: 94%; remaining binding at 1 µM [23]: 0.15%; remaining binding at 1 µM [24]: 0.75%; remaining binding at 1 µM [25]: 0.35%; remaining binding at 1 µM [26]: 0.8%; remaining binding at 1 µM [27]: 41%; remaining binding at 1 µM [28]: 100%; remaining binding at 1 µM [29]: 78%; remaining binding at 1 µM [30]: 0.05%; remaining binding at 1 µM [31]: 92%; remaining binding at 1 µM [32]: 14%; remaining binding at 1 µM [33]: 83%; remaining binding at 1 µM [34]: 91%; remaining binding at 1 µM [35]: 93%; remaining binding at 1 µM [36]: 49%; remaining binding at 1 µM [37]: 84%; remaining binding at 1 µM [38]: 13%; remaining binding at 1 µM [39]: 95%
